Source: article PMC6403309, “Hybrid approach to sieve out natural compounds against dual targets in Alzheimer’s Disease” (Scientific Reports, 2019)
Read-outs that look alike come from different tables or passages of the source.

What was measured:
BACE1 = target: T1, BACE1 (Homo sapiens, UniProt P56817); experiment: BACE1 inhibition assay (FRET activity assay kit); format: biochemical; details: for inhibition at 1 µM: read-out: Single point inhibition % (SPI1μM)
T1 construct: purchased Sigma Aldrich

Aβ25–35 = target: T2, Aβ25–35 (Homo sapiens, UniProt P05067); experiment: Thioflavin T assay of Aβ25–35 aggregation; format: biochemical; details: compound 100 µM co-incubated with Aβ25–35 100 µM, 72 hours, 37 °C
T2 construct: Aβ25–35 was bought from Anaspec in powdered form; purchased Anaspec
Method: The dye Thioflavin T (ThT), is used to quantify amyloid aggregates. On binding to the beta sheets of amyloid aggregates, the rotation of the ThT rings is hampered thus preserving the excited states leading to fluorescence enhancement. The Aβ25–35 sample was prepared by dissolving it in HFIP to remove any preformed aggregates and keeping aliquots at −80 °C. On the day of assay, aliquot of the HFIP dissolved Aβ25–35 (final concentration 100 µM) was lyophilized. Thereafter the lyophilized sample was dissolved in phosphate buffer. A stock solution of the compounds with concentration of 1 mM was prepared in DMSO. The compounds with final concentration of 100 µM were co-incubated with Aβ25–35 for 72 hours at 37 °C. The co-incubated samples were diluted five times. A stock solution of Thioflavin T was prepared in DMSO and final concentration of 15 µM was added. The fluorescence was measured by excitation at 440 nm and emission at 460–550 nm.

T1 sequence (P56817 46-501): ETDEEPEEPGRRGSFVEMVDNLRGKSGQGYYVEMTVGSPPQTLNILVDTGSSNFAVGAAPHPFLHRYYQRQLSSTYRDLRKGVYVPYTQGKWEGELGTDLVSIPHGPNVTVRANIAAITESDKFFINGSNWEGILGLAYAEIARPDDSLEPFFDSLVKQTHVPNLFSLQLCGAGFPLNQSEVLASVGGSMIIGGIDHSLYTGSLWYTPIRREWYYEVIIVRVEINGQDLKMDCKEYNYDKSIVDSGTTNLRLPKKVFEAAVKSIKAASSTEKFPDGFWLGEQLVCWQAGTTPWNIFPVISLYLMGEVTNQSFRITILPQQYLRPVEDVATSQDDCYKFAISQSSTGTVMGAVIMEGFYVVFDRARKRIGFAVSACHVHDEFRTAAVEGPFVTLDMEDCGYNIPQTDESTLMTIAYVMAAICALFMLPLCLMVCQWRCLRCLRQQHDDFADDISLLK

O=c1c(O)c(-c2ccc(O)c(O)c2)oc2c(O)c(O)cc(O)c12 [Gossypetin, reference compound]
inhibition at 1 µM (BACE1): 4.6%

COC(=O)C(Cc1ccccc1)NC(=O)COc1cc(O)c2c(=O)c(-c3ccc4c(c3)OCCO4)coc2c1 (stereo not shown) [ZINC01758814]
reduction in the fibril formation (Aβ25–35): more than 50%
BACE1 inhibition activity (in words) (BACE1; compound 1 µM): moderate BACE1 inhibition activity
inhibition at 1 µM (BACE1; compound 1 µM, 37 °C, 2 hours): 17%
